Experimental data taken from US20200268765A1, “METHOD OF TREATING MEDULLOBLASTOMA WITH AN EZH2 INHIBITOR” (Epizyme, Inc., priority 2015, published 2020).
“Also recorded” adds a separate entry of the source.

Columns and labels:
[1] = system: G401 SNF mutant cell line; assay: Soft agar growth of G401 versus RD cells; type: cell-based; conditions: after 7 days in soft agar, compared to wild type cells RD; FIGS. 3A-3D
Source text: FIGS. 3A-3D are a series of bar graphs showing that G401 SNF mutant cell line is responding to Compound D after 7 days in soft agar compared to wild type cells RD.

[2] = system: LNCAP prostate cancer cells; assay: LNCAP cell growth inhibition in vitro; type: cell-based; conditions: FIG. 7A
SCLC line NCI-H841 = assay: Microscopy of cell morphology; type: cell-based; conditions: 4.1E-02 uM or 3.3 uM; FIGS. 9A-9C
[3] = system: ATRX mutant SCLC lines NCI-H446, SW1271 and NCI-H841; assay: Response of ATRX mutant SCLC lines; type: cell-based; conditions: FIGS. 8A-8C
Source text: FIGS. 8A-8C are three graphs establishing that ATRX mutant SCLC lines NCI-H446 (FIG. 8A), SW1271 (FIG. 8B) and NCI-H841 (FIG. 8C) are responding to Compound D.

[4] = system: SNF5 mutant cell lines A204, G401 and G402; assay: Response of SNF5 mutant versus wild type cell lines to EZH2 compound; type: cell-based; conditions: compared to wild type cell lines RD and SJCRH30; FIGS. 2A-2E
UPN737 ATRT cell line = assay: Surviving fraction after 2Gy radiation, UPN737; type: cell-based; conditions: FIG. 25B
Source text: FIG. 25B is a pair of graphs showing a surviving fraction of untreated or DZNEP-treated ATRT cells (from a UPN737 ATRT cell line, “737”) exposed to 2Gy radiation. Inhibition of EZH2 radio-sensitizes ATRT.

[5] = system: atypical teratoid rhabdoid tumors (ATRTs); assay: ATRT cell self-renewal; type: cell-based
Source text: FIG. 24A is a series of photographs showing control or EZH2 inhibitor-treated (DNZep-treated) atypical teratoid rhabdoid tumors (ATRTs) at 1, 3, 5, and 7 days post-treatment.
FIG. 24D is a series of photographs showing control or EZH2 inhibitor-treated (DNZep-treated) atypical teratoid rhabdoid tumors (ATRTs) at 3, 5, 8 and 10 days post-treatment.

BT-16 ATRT cell line = assay: Surviving fraction after 2Gy radiation, BT-16; type: cell-based; conditions: FIG. 25A
Source text: FIG. 25A is a pair of graphs showing a surviving fraction of untreated or DZNEP-treated ATRT cells (from a BT-16 ATRT cell line) exposed to 2Gy radiation. Inhibition of EZH2 radio-sensitizes ATRT.

medulloblastoma cells = assay: Medulloblastoma cell growth (total cells per milliliter over time); type: cell-based; conditions: for medulloblastoma cell growth (total cells per milliliter): as a function of time (days), FIGS. 26A-26C
Source text: The total cells per milliliter of culture were counted each day for 10 days.

[6] = system: SMARCB1-deleted MRT cells; assay: Cell cycle analysis (flow cytometry) and apoptosis (TUNEL assay); type: cell-based; conditions: 1 μM, up to 14 days, FIG. 13
Protocol: Cell cycle analysis (by flow cytometry) and determination of apoptosis (by TUNEL assay) in RD (FIG. 13A) or G401 cells (FIG. 13B) during incubation with either vehicle or 1 μM Compound A for up to 14 days. G1 arrest was observed as of day 7 and apoptosis was induced as of day 11. Data are represented as mean values±SEM (n=2). The DMSO control values shown are the average±SEM from each time point. Cells were split and re-plated on days 4, 7 and 11 at the original seeding density.

[7] = system: G401 SNF5 mutant cell line; assay: CellTiter-Glo Luminescent Cell Viability Assay after 7 days pretreatment; type: cell-based; conditions: pretreated for 7 days, replated on day 0; FIGS. 4A-4D
Protocol: FIGS. 4A-4D are four graphs showing that G401 SNF5 mutant cell line is sensitive to Compound A in vitro. Wild type cell line SJCRH30 (FIG. 4A) and RD (FIG. 4C) and SNF5 mutant cell line G401 (FIG. 4B) and A204 (FIG. 4D) were pretreated for 7 days with indicated concentrations of Compound A and replated on day 0. Cell viability was determined by CellTiter-Glo® Luminescent Cell Viability Assay.

G401 xenografts = assay: G401 xenograft (malignant rhabdoid tumor model); type: in vivo, SCID mice
Protocol: Data represent the mean values±SEM (n=8). Compound administration was stopped on day 28. FIG. 5C: EZH2 target inhibition in G401 xenograft tumor tissue collected from a parallel cohort of mice on day 21. […] Horizontal lines represent group mean values. BLLQ=below lower limit of quantification. FIGS. 5D and 5E show Immunohistochemical staining of tumor histone methylation of tumor samples from the vehicle treated (FIG. 5D) and Compound A treated (FIG. 5E) (at 125 mg/kg) mice.
Data are presented as mean values±SEM (n=16 until day 21, n=8 from day 22 to 60). […] FIG. 15C: Tumor weights of 8 mice euthanized on day 21. ****p<0.0001, Fisher's exact test. FIG. 15D: Plasma was collected 5 min before and 3 h after dosing of Compound A on day 21, and compound levels were measured by LC-MS/MS. Animals were euthanized, and tumors were collected 3 h after dosing on day 21. Tumor homogenates were generated and subjected to LC-MS/MS analysis to determine Compound A concentrations. Note that tumor compound levels could not be determined from all animals especially in the higher dose groups because the xenografts were too small on day 21. Dots represent values for the individual animals; horizontal lines represent group mean values.
FIGS. 16A-16F are a series of graphs showing that Compound A eradicates SMARCB1-deleted MRT xenografts in SCID mice. […]

[8] = system: primary medulloblastoma cells
Protocol: FIG. 28A is a schematic diagram depicting the process by which primary medulloblastoma cell growth is evaluated ex vivo.
A slice culture of medulloblastoma was freshly isolated from a subject.
A patient having medulloblastoma underwent surgery to remove a slice of tumor tissue for testing. The medulloblastoma slice was cultured ex vivo on tissue supporting inserts (FIG. 28A). […] Following the treatment period, the cells of the slice culture were treated with BrdU for 4 hours prior to disaggregation and sorting by flow cytometry.

Oral bioavailability = conditions: in vivo
ATRT = ATRT survival in vivo; conditions: versus vehicle; FIG. 29A
[9] = system: cellular H3K27Me3 levels in G401 and RD cells; assay: Cellular histone methylation (immunoblot of acid-extracted histones); type: cell-based
Protocol: FIGS. 10A-10F are a series of graphs showing effects of Compound A on cellular global histone methylation and cell viability.
FIG. 12A: Cell lysates were analyzed by immunoblot with antibodies specific to SMARCB1, EZH2 and Actin (loading control). […] Cells were incubated with Compound A for 4 days, and acid-extracted histones were analyzed by immunoblot.

SMARCB1 regulated genes = assay: Gene expression by qPCR; type: cell-based; conditions: G401 and RD cells, 1 μM, 2, 4 and 7 days; FIGS. 14A-14L
Protocol: FIG. 14A: Basal expression of SMARCB1 regulated genes in G401 SMARCB1-deleted cells, relative to RD control cells (measured by qPCR, n=2). FIGS. 14B-14K: G401 and RD cells were incubated with either DMSO or 1 μM Compound A for 2, 4 and 7 days. Gene expression was determined by qPCR (n=2) and is expressed relative to the DMSO control of each time point. FIGS. 14B-14K correspond to genes GLI1, PTCh1, DOCK4, CD133, PTPRK, BIN1, CDKN1A, CDKN2A, EZH2, and MYC, respectively. FIG. 14L: G402 cells were incubated with either DMSO (left panel) or 1 μM Compound A (right panel) for 14 days. Cells were split and re-plated to the original seeding density on day 7.

[10] = 500 nM or 2 μM, 4 days, compared to untreated control

Q: Which results are given for CCN(c1cc(-c2ccc(CN3CCOCC3)cc2)cc(C(=O)NCc2c(C)cc(C)[nH]c2=O)c1C)[C@H]1CC[C@H](N(C)C)CC1 [Compound D]?
A: response in soft agar [1]: responding; cell growth inhibition [2]: dose-dependent cell growth inhibition; cell morphology (SCLC line NCI-H841): changes morphology; response of cell lines [3]: responding; response of cell lines to EZH2 compound [4]: selectively respond

Q: Which “radio-sensitization (surviving fraction)” value (UPN737 ATRT cell line) does the source give for Nc1nccc2c1ncn2C1C=C(CO)C(O)C1O (stereo not shown) [DNZep] here?
A: radio-sensitizes

Q: And the ATRT cell self-renewal ([5]; 1, 3, 5, and 7 days post-treatment, FIG. 24A)?
A: suppresses ATRT cell self-renewal

Q: What about the ATRT cell self-renewal ([5]; 3, 5, 8 and 10 days post-treatment, FIG. 24D) of the same compound?
A: suppresses ATRT cell self-renewal

Q: What about the “radio-sensitization (surviving fraction)” value (BT-16 ATRT cell line) of the same compound?
A: radio-sensitizes

Q: With CC[C@H](C)n1cc(C)c2c(C(=O)NCc3c(C)cc(C)[nH]c3=O)cc(-c3ccc(N4CCNCC4)nc3)cc21 [GSK-126, reference compound] as the compound, how does the “medulloblastoma cell growth (total cells per milliliter)” value (medulloblastoma cells) read?
A: decrease medulloblastoma cell growth

Q: For CCCc1cc(C)[nH]c(=O)c1CNC(=O)c1cc(-c2ccc(N3CCN(C(C)C)CC3)nc2)cc2c1cnn2C(C)C [UNC 1999, reference compound], which “medulloblastoma cell growth (total cells per milliliter)” value (medulloblastoma cells) is on record?
A: decrease medulloblastoma cell growth

Q: For CCN(c1cc(-c2ccc(CN3CCOCC3)cc2)cc(C(=O)NCc2c(C)cc(C)[nH]c2=O)c1C)C1CCOCC1 [tazemetostat], which “day as of which apoptosis was induced” value ([6]; TUNEL) is on record?
A: 11 days

Q: And the “day as of which G1 arrest was observed” value [6]?
A: 7 days

Q: And the “cell viability (sensitivity in vitro)” value [7]?
A: sensitive

Q: And the tumor regression (G401 xenografts; administration stopped on day 28, FIGS. 5A-5B)?
A: durable regressions

Q: What about the tumor regression (G401 xenografts; twice daily (BID) for 21 days, FIG. 15B) of the same compound?
A: Tumor regressions induced

Q: What about the “medulloblastoma cell growth versus negative control (DMSO)” value (medulloblastoma cells; 0.5 μM, 2 μM and 6 μM, counted each day for 10 days, FIG. 26C) of the same compound?
A: significant decrease

Q: What about the “effect on medulloblastoma cell growth compared with the other small molecule inhibitors tested” value (medulloblastoma cells; GSK-126, UNC 1999 and tazemetostat, FIG. 26D) of the same compound?
A: superior ability to decrease medulloblastoma cell growth; also recorded: greatest effect

Q: What about the “medulloblastoma cell growth (total cells per milliliter)” value (medulloblastoma cells) of the same compound?
A: decrease medulloblastoma cell growth

Q: And the “proportion of cells in the G0/G1 stage” value [8, 10]?
A: increased proportion

Q: What about the “proportion of cells in the G2/M stage” value [8, 10] of the same compound?
A: decreased proportion

Q: And the “primary medulloblastoma cell growth ex vivo (cell cycle stages)” value ([8]; slice culture treated 4 days, FIG. 28B)?
A: decreases primary medulloblastoma cell growth ex vivo

Q: What about the “primary medulloblastoma cell growth ex vivo (BrdU)” value ([8]; slice culture treated 4 days, FIG. 28C) of the same compound?
A: decreases primary medulloblastoma cell growth ex vivo

Q: And the oral bioavailability (Oral bioavailability)?
A: orally bioavailable

Q: And the “percent survival / ATRT in vivo” value (ATRT)?
A: decreases ATRT in vivo

Q: What about the “inhibition of cellular H3K27 methylation (specificity)” value ([9]; 4 days incubation, immunoblot, FIG. 12B) of the same compound?
A: Selective inhibition of cellular H3K27 methylation

Q: What about the “inhibition of cellular H3K27Me3 levels” value ([9]; FIG. 10B) of the same compound?
A: Concentration-dependent inhibition

Q: And the “expression of SMARCB1 regulated genes” value (SMARCB1 regulated genes)?
A: induces changes in expression
